From ChEMBL document CHEMBL5038591, “Identification of a Novel TAR RNA-Binding Protein 2 Modulator with Potential Therapeutic Activity against Hepatocellular Carcinoma” (J Med Chem, 2021)
Activity calls are given as the source filed them. No cut-off for these calls is given here.

Columns and labels:
MHCC97 [1] = experiment: Inhibition of colony formation in human MHCC97H cells at 30 uM incubated for 14 days by crystal violet staining based assay; assay type: functional, cell-based; conditions: time 14.0 day
SK-HEP1 [2] = experiment: Antiproliferative activity against human SK-HEP1 cells assessed as increase in miR-10a-5p level at 20 uM by qRT-PCR analysis; assay type: functional, cell-based
MHCC97 [3] = experiment: Antitumor activity in human MHCC97 cells xenografted in SCID mouse assessed as reduction in infiltration of inflammatory cells in left outer lobe of liver at 40 mg/kg, ip administered once every 3 days measured after 30 days by H and E staining based immunohistochemical analysis; assay type: functional, organism-based; conditions: time 30.0 day
HeLa [4] = experiment: Antiproliferative activity against human HeLa cells incubated for 24 hrs by alamar blue assay
MHCC97 [5] = experiment: Inhibition of cell migration in human MHCC97H cells at 30 uM incubated for 12 hrs by crystal violet staining based transwell assay; assay type: functional
SK-HEP1 [6] = experiment: Induction of cell cycle arrest in human SK-HEP1 cells assessed as S phase accumulation at 20 uM incubated for 24 hrs by propidium iodide staining based flow cytometry analysis (reference value: 26.72%); assay type: functional
MDA-MB-231 [7] = experiment: Inhibition of colony formation in human MDA-MB-231 cells at 30 uM incubated for 14 days by crystal violet staining based assay; assay type: functional, cell-based; conditions: time 14.0 day
SK-HEP1 [8] = experiment: Antiproliferative activity against human SK-HEP1 cells assessed as increase in miR-452-5p level at 20 uM by qRT-PCR analysis; assay type: functional, cell-based
Huh-7 = experiment: Antiproliferative activity against human Huh-7 cells incubated for 24 hrs by alamar blue assay; conditions: Huh-7, 24 h
SK-HEP1 [9] = experiment: Effect on human SK-HEP1 cells assessed as decrease in miR-10b-5p level at 10 to 50 uM by qRT-PCR analysis; assay type: functional, cell-based; conditions: dose 10-50 µM
SK-HEP1 [10] = experiment: Inhibition of epithelial-mesenchymal transition in human SK-HEP1 cells assessed as change in E-cadherin expression at 10 to 50 uM incubated for 24 hrs by Western blot analysis; assay type: functional, cell-based; conditions: dose 10-50 µM
SK-HEP1 [11] = experiment: Inhibition of cell migration in human SK-HEP1 cells knockdown TRBP at 20 uM measured after 12 hrs using crystal violet staining inverted microscope based transwell assay; assay type: functional
[12] = molecular target: T1, Inhibitor of nuclear factor kappa-B kinase subunit beta (Homo sapiens) (UniProt O14920); experiment: Inhibition of IkappaB phosphorylation in human SK-HEP1 cells at 30 uM by Western blot analysis; assay type: cell-based
T1 sequence (whole entry): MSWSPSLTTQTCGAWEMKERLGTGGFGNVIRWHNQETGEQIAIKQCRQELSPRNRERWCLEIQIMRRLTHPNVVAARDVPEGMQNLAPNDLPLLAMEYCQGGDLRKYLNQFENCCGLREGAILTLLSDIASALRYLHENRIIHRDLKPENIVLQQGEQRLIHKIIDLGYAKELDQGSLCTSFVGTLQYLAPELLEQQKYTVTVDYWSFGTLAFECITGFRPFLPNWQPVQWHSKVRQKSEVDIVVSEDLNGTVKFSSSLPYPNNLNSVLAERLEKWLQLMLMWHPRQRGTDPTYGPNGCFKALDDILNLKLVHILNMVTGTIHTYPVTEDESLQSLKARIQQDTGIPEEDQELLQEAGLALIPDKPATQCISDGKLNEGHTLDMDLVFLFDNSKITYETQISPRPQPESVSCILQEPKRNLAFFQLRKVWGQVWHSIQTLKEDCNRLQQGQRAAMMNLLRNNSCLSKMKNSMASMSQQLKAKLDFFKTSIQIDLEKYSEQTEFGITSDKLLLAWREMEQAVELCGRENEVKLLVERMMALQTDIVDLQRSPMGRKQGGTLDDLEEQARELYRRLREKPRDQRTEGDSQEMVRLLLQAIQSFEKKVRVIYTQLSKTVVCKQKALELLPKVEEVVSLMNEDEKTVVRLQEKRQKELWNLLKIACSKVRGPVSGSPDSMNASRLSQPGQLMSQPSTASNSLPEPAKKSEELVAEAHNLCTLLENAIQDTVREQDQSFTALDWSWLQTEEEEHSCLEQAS

SK-HEP1 [13] = experiment: Induction of cell cycle arrest in human SK-HEP1 cells assessed as G1 phase accumulation at 20 uM incubated for 24 hrs by propidium iodide staining based flow cytometry analysis (reference value: 48.61%); assay type: functional
SK-HEP1 [14] = experiment: Antiproliferative activity against human SK-HEP1 cells assessed as increase in miR-122-5p level at 20 uM by qRT-PCR analysis; assay type: functional, cell-based
MHCC97 [15] = experiment: Antimetastatic activity against human MHCC97 cells xenografted in SCID mouse assessed as decrease in liver metastasis at 20 mg/kg, ip administered once every 3 days and measured after 10 days; assay type: functional, organism-based; conditions: time 10.0 day
HeLa [16] = experiment: Inhibition of colony formation in human HeLa cells at 30 uM incubated for 14 days by crystal violet staining based assay; assay type: functional, cell-based; conditions: time 14.0 day
Mus musculus [17] = experiment: Downregulation of TPX2 expression in mouse liver at 40 mg/kg measured after 30 days by immunohistochemical staining analysis; assay type: functional, organism-based; conditions: time 30.0 day
MHCC97 [18] = experiment: Antiproliferative activity against human MHCC97 cells incubated for 24 hrs by alamar blue assay; conditions: MHCC97, 24 h
SK-HEP1 [19] = experiment: Induction of cell cycle arrest in human SK-HEP1 cells assessed as G2 phase accumulation at 20 uM incubated for 24 hrs by propidium iodide staining based flow cytometry analysis (reference value: 24.12%); assay type: functional
[20] = molecular target: Transcription factor p65 (Homo sapiens) (UniProt Q04206); experiment: Inhibition of p65 phosphorylation in human SK-HEP1 cells at 30 uM by Western blot analysis; assay type: cell-based
[21] = molecular target: Signal transducer and activator of transcription 3 (Homo sapiens) (UniProt P40763); experiment: Inhibition of STAT3 phosphorylation in human SK-HEP1 cells at 30 uM by Western blot analysis; assay type: cell-based
Mus musculus [22] = experiment: Downregulation of KIF14 expression in mouse liver at 40 mg/kg measured after 30 days by immunohistochemical staining analysis; assay type: functional, organism-based; conditions: time 30.0 day
SK-HEP1 [23] = experiment: Effect on TRBP protein expression in human SK-HEP1 cells at 30 uM after 24 hrs by immunoblot analysis; assay type: functional, cell-based
MHCC97 [24] = experiment: Antimetastatic activity against human MHCC97 cells xenografted in SCID mouse assessed as decrease in liver metastasis at 40 mg/kg, ip administered once every 3 days and measured after 10 days; assay type: functional, organism-based; conditions: time 10.0 day
HepG2 = experiment: Antiproliferative activity against human HepG2 cells incubated for 24 hrs by alamar blue assay; conditions: HepG2, 24 h
MDA-MB-231 [25] = experiment: Antiproliferative activity against human MDA-MB-231 cells at 25 uM incubated for 24 hrs by alamar blue assay; assay type: functional, cell-based
HCT-116 = experiment: Antiproliferative activity against human HCT-116 cells at 25 uM incubated for 24 hrs by alamar blue assay; assay type: functional, cell-based
SK-HEP1 [26] = experiment: Antiproliferative activity against human SK-HEP1 cells assessed as increase in miR-106b-5p level at 20 uM by qRT-PCR analysis; assay type: functional, cell-based
Mus musculus [27] = experiment: Downregulation of CDC20 expression in mouse liver at 40 mg/kg measured after 30 days by immunohistochemical staining analysis; assay type: functional, organism-based; conditions: time 30.0 day
MHCC97 [28] = experiment: Antitumor activity against human MHCC97 cells xenografted in SCID mouse assessed as decrease in tumor size at 20 mg/kg, ip administered once every 3 days and measured after 10 days; assay type: functional, organism-based; conditions: time 10.0 day

Signal transducer and activator of transcription 3 (Homo sapiens), sequence (P40763 whole entry): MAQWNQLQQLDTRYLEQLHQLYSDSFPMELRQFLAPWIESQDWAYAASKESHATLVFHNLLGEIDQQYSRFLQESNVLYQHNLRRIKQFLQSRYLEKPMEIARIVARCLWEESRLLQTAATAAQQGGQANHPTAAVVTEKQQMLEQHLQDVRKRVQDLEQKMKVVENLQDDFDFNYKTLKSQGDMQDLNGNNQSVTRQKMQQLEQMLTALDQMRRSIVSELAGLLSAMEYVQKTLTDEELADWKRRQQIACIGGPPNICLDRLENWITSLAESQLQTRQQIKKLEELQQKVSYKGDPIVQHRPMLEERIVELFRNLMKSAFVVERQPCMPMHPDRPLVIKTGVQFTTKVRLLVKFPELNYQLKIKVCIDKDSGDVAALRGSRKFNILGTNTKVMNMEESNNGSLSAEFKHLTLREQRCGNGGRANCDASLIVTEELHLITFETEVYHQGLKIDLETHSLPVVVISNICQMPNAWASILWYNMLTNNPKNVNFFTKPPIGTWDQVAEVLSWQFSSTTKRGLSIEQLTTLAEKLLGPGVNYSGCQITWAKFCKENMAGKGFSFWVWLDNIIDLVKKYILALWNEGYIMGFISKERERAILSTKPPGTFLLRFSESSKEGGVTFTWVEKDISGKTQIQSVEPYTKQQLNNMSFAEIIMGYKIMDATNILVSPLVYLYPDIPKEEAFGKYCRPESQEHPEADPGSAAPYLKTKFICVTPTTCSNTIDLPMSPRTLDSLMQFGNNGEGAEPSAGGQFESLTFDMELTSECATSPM
Transcription factor p65 (Homo sapiens), sequence (Q04206 whole entry): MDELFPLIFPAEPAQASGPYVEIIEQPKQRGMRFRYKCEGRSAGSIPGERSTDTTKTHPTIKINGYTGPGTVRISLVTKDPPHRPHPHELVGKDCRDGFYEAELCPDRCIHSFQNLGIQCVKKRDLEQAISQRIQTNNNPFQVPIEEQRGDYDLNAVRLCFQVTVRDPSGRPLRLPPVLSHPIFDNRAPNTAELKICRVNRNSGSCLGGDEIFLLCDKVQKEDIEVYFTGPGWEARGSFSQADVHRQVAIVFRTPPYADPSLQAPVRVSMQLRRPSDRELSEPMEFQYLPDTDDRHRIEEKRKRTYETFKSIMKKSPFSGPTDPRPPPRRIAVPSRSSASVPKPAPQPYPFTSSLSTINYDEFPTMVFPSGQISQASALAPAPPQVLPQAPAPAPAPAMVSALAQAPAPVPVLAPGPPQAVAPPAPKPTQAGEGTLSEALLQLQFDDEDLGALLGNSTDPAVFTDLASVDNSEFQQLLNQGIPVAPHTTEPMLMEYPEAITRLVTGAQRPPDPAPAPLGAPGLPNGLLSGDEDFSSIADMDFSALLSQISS

COc1cc2c(c(O)c1OC)-c1c(cc3c(c1OC)OCO3)C[C@H](C)[C@H](C)C2
inhibition (MHCC97 [1]): Active | Activity (SK-HEP1 [2]): inactive | Activity (MHCC97 [3]): Active | IC50 (HeLa [4]): 32.8 µM | inhibition (MHCC97 [5]): Active | Activity (SK-HEP1 [6]): 22.3% | inhibition (MDA-MB-231 [7]): Active | Activity (SK-HEP1 [8]): inactive | IC50 (Huh-7): 32.2 µM | Activity (SK-HEP1 [9]): Active | inhibition (SK-HEP1 [10]): inactive | inhibition (SK-HEP1 [11]): inactive | inhibition [12]: Active | Activity (SK-HEP1 [13]): 57.4% | Activity (SK-HEP1 [14]): Active | Activity (MHCC97 [15]): inactive | inhibition (HeLa [16]): Active | Activity (Mus musculus [17]): Active | IC50 (MHCC97 [18]): 24.8 µM | Activity (SK-HEP1 [19]): 19.68% | inhibition [20]: Active | inhibition [21]: inactive | Activity (Mus musculus [22]): Active | Activity (SK-HEP1 [23]): inactive | Activity (MHCC97 [24]): Active | IC50 (HepG2): 27.3 µM | Activity (MDA-MB-231 [25]): inactive | Activity (HCT-116): inactive | Activity (SK-HEP1 [26]): Active | Activity (Mus musculus [27]): Active | Activity (MHCC97 [28]): Active
